Data taken from patent US8314112B2 (Novartis AG, priority 2008, dated 2012).

molecular target: T1, human ALK5 (kinase domain, ALK5 T204D) (Homo sapiens, UniProt P36897, T204D); test: ALK5 kinase assay ([33P] phosphate incorporation into casein); assay type: biochemical; details: casein substrate, 1 μM unlabelled ATP
T1 construct: The kinase domain of human ALK5 (amino acids 200-503); made in house; host or cells: insect cells (baculovirus)
T1 sequence (P36897 200-503 T204D): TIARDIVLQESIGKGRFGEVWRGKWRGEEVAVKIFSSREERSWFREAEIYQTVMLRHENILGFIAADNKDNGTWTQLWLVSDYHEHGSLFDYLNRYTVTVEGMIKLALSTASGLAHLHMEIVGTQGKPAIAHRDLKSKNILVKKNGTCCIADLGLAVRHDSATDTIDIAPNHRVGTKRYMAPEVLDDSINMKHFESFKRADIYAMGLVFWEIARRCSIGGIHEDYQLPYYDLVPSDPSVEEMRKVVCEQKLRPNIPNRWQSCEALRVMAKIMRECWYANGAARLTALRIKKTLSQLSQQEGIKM
Procedure: The kinase activity of ALK5 is assessed by measuring radiolabelled phosphate [33P] incorporation in to the generic substrate, casein. The kinase domain of human ALK5 (amino acids 200-503) is fused to an N-terminal histidine tag. The kinase activity of ALK5 is rendered constitutive via point mutation at amino acid 204 (threonine to aspartate modification, ALK5 T204D) and the kinase construct is engineered to be expressed from a baculovirus expression construct in insect cells. The purified, recombinantly-expressed histidine-tagged ALK5 T204D protein is dissolved at 5.4 mg/ml in 50 mM Tris-HCl pH 8.0, 150 mM NaCl, 5 mM DTT. ALK5 T204D is dissolved to 2.5 μg/ml in assay buffer (Assay buffer: 20 mM Tris-HCl pH 7.4, 10 mM MgCl2, 2 mM MnCl2) on the day of use.
Test compounds and reference compounds are dissolved in assay buffer without DTT containing 5% (v/v) DMSO. Stock solutions of test and reference compounds are diluted in assay buffer with DTT (1.25 mM) containing 4.5% (v/v) DMSO. 10 μl of test or reference compound are added to the appropriate wells of 96 well U-bottomed plate. Total enzyme activity is determined by measuring ALK5 T204D activity in the absence of ALK5 kinase inhibitor reference compounds. Non-specific binding (NSB) is determined by measuring the activity of ALK5 T204D in the presence of ALK5 kinase inhibitor reference compounds. 10 μl of dephosphorylated casein stock solution (dephosphorylated casein is dissolved in ddH2O at 20 mg/ml) is added per well (200 μg/well final assay concentration). 20 μl of ALK5 T204D (2.5 μg/ml solution) is added per well (50 ng/well final assay concentration). The plates are left to incubate at room temperature for 10 minutes.
10 μl of ATP mix is added to the well to initiate the reaction (0.66 nM [^33P]ATP/1 μM unlabelled ATP/well final assay concentration). The ATP mix is prepared as follows, unlabelled ATP (3 mM) is dissolved in ddH2O and pH adjusted to 7.4. The stock concentration of [^33P]ATP is 10 μCi/μl. The appropriate volume of [^33P]ATP is added to unlabelled ATP solution such that the final assay concentration per well is 0.1 μCi. Following addition of the ATP mix, the plates are incubated at room temperature for 50 minutes. The kinase reaction is terminated by the addition of 50 μL Stop Buffer (20 mM Tris-HCl pH 7.4, 10 mM EDTA).
75 μl/well from the reaction plate is transferred to a Multiscreen-IP plate (MultiScreen-IP plates are prepared by added 50 μL of 70% (v/v) ethanol per well and incubated for 5 minutes at room temperature. The ethanol is removed by aspiration via a MultiScreen HTS Vaccum Manifold unit (Millipore, Cat no: MSVMHT500). The plates are washed twice by adding 200 μl/well ddH2O). The MultiScreen-IP plate is incubated at room temperature for 30 minutes to allowing binding of casein to the plate. The MultiScreen-IP plates are washed three times by adding 200 μl/well 100 mM phosphoric acid solution and the gasket is carefully removed from the back of the MultiScreen-IP plate and the plate dried in the oven for 30 minutes. The MultiScreen-IP plate is backsealed, 50 μL of Microscint™20 is added, then the plates are topsealed and radiolabelled casein detected and quantified on a TopCount™ plate-reader using the ^33P scintillation protocol.

First: c1ccc(-c2nc(-c3cccnc3)c3cc[nH]c3n2)nc1 [Example 1, 4-Pyridin-3-yl-2-pyridin-2-yl-7H-pyrrolo[2,3-d]pyrimidine]
Second: Cc1cccc(-c2nc(-c3cccnc3)c3cc[nH]c3n2)n1 [Example 2, 2-(6-methyl-pyridin-2-yl)-4-pyridin-3-yl-7H-pyrrolo[2,3-d]pyrimidine]
The IC50 of the first is 3.1-fold higher: 1180 nM for the first, 380 nM for the second.

Going from COc1cncc(-c2nc(-c3cccc(C)n3)nc3[nH]ccc23)c1 [Example 3, 4-(5-Methoxy-pyridin-3-yl)-2-(6-methyl-pyridin-2-yl)-7H-pyrrolo[2,3-d]pyrimidine] to Cc1cccc(-c2nc(-c3cncc(Br)c3)c3cc[nH]c3n2)n1 [Example 16, 4-(5-bromo-pyridin-3-yl)-2-(6-methyl-pyridin-2-yl)-7H-pyrrolo[2,3-d]pyrimidine], the IC50 rises from 130 nM to 1810 nM (14-fold).

Cc1cccc(-c2nc(-c3cncc(-c4ccccc4)c3)c3cc[nH]c3n2)n1 [Example 4, 2-(6-Methyl-pyridin-2-yl)-4-(5-phenyl-pyridin-3-yl)-7H-pyrrolo[2,3-d]pyrimidine] and Cc1cccc(-c2nc(-c3cncc(-c4ccc(F)cc4)c3)c3cc[nH]c3n2)n1 [Example 7, 4-[5-(4-Fluoro-phenyl)-pyridin-3-yl]-2-(6-methyl-pyridin-2-yl)-7H-pyrrolo[2,3-d]pyrimidine] are within 1.5-fold of each other in IC50: 34 nM for the first, 45 nM for the second.

Compared with COc1ccc(-c2cncc(-c3nc(-c4cccc(C)n4)nc4[nH]ccc34)c2)cc1 [Example 5, 4-[5-(4-Methoxy-phenyl)-pyridin-3-yl]-2-(6-methyl-pyridin-2-yl)-7H-pyrrolo[2,3-d]pyrimidine], COc1cccc(-c2cncc(-c3nc(-c4cccc(C)n4)nc4[nH]ccc34)c2)c1 [Example 6, 4-[5-(3-Methoxy-phenyl)-pyridin-3-yl]-2-(6-methyl-pyridin-2-yl)-7H-pyrrolo[2,3-d]pyrimidine] is 3.6-fold lower in IC50: 115 nM for the first, 32 nM for the second.

Going from COc1ccccc1-c1cncc(-c2nc(-c3cccc(C)n3)nc3[nH]ccc23)c1 [Example 8, 4-[5-(2-Methoxy-phenyl)-pyridin-3-yl]-2-(6-methyl-pyridin-2-yl)-7H-pyrrolo[2,3-d]pyrimidine] to Cc1cccc(-c2nc(-c3cncc(-c4cccc(CN5CCN(C)CC5)c4)c3)c3cc[nH]c3n2)n1 [Example 10, 4-{5-[3-(4-Methyl-piperazin-1-ylmethyl)-phenyl]-pyridin-3-yl}-2-(6-methyl-pyridin-2-yl)-7H-pyrrolo[2,3-d]pyrimidine], the IC50 falls from 478 nM to 50 nM (9.6-fold).

Going from Cc1cccc(-c2nc(-c3cncc(-c4ccc(C(=O)N5CCN(C)CC5)cc4)c3)c3cc[nH]c3n2)n1 [Example 9, (4-methyl-piperazin-1-yl)-(4-{5-[2-(6-methyl-pyridin-2-yl)-7H-pyrrolo[2,3-d]pyrimidin-4-yl]-pyridin-3-yl}-phenyl)-methanone] to Cc1cccc(-c2nc(-c3cncc(-c4ccc(N5CCN(C(C)C)CC5)cc4)c3)c3cc[nH]c3n2)n1 [Example 15, 4-{5-[4-(4-Isopropyl-piperazin-1-yl)-phenyl]-pyridin-3-yl}-2-(6-methyl-pyridin-2-yl)-7H-pyrrolo[2,3-d]pyrimidine], the IC50 rises from 13 nM to 160 nM (12-fold). The first is the more potent here.

CCNC(=O)c1cncc(-c2nc(-c3cccc(C)n3)nc3[nH]ccc23)c1 [Example 11, N-Ethyl-5-[2-(6-methyl-pyridin-2-yl)-7H-pyrrolo[2,3-d]pyrimidin-4-yl]-nicotinamide] and Cc1cccc(-c2nc(-c3cncc(C(=O)NCCN(C)C)c3)c3cc[nH]c3n2)n1 [Example 12, N-(2-Dimethylamino-ethyl)-5-[2-(6-methyl-pyridin-2-yl)-7H-pyrrolo[2,3-d]pyrimidin-4-yl]-nicotinamide] are within 1.5-fold of each other in IC50: 367 nM for the first, 345 nM for the second.

In the case of Cc1cccc(-c2nc(-c3cncc(C(=O)NCCCN(C)C)c3)c3cc[nH]c3n2)n1 [Example 13, N-(3-Dimethylamino-propyl)-5-[2-(6-methyl-pyridin-2-yl)-7H-pyrrolo[2,3-d]pyrimidin-4-yl]-nicotinamide], the IC50 is reported as 177 nM.
